Results on one molecule are retold here after paper PMC7496096, “Functional Characterisation of ClpP Mutations Conferring Resistance to Acyldepsipeptide Antibiotics in Firmicutes” (Chembiochem, 2020).

One experiment concerns B. subtilis RC5. Type of experiment: cell-based, Bacillus subtilis. The conditions noted are these: resistant clone of B. subtilis 168; ClpP K85→STOP, premature stop. The procedure:
(§1) Determination of antibacterial activity: ADEP1 was purified from the culture supernatant of S. hawaiiensis NRRL 15010 as described.4 ADEPs 2, 4, 7, 9 were custom synthesised by EMC Microcollections, Tübingen, or provided by AiCuris, Wuppertal, Germany. The minimal inhibitory concentration (MIC) was determined by broth microdilution in Mueller‐Hinton broth (without cation adjustment) according to the guidelines of the Clinical Laboratory Standards Institute (CLSI).69 The inoculum was set to 5×10^4 CFU mL^−1 to allow some distance to the determined spontaneous resistance frequencies. […] All other ADEPs were used from DMSO stock solutions kept at −20 °C.
(§2) Screening for ADEP‐resistant mutants and determination of resistance rates: Single colonies of wild‐type strains grown on Mueller‐Hinton agar plates overnight were suspended in sterile saline and a final inoculum of 5×10^6 cells was spread on plates supplemented with different ADEP congeners at 4× and 10× the MIC. For B. subtilis strain 3xclpP, ADEP7‐containing Mueller‐Hinton agar plates were additionally supplemented with 1 mM IPTG. Resistant colonies were counted after 24 h at 37 °C and colonies were randomly chosen for MIC determinations and sequencing. Mutations in the clpP gene of the respective isolated mutants were analysed by amplifying the clpP gene (and upstream promoter region) by PCR and sequencing of the resulting PCR amplicons (LGC genomics). Sequencing data were analysed by using SnapGene software (GSL Biotech).

The subject of another experiment is B. subtilis RC2. It counts as cell-based, Bacillus subtilis. The conditions noted are these: resistant clone of B. subtilis 168; ClpP L3→STOP, premature stop. The procedure:
as §1, §2

The subject of the next experiment is B. subtilis RC9. Type of experiment: cell-based, Bacillus subtilis. The conditions noted are these: resistant clone of B. subtilis 168; ClpP I165→N (equatorial interface; α6). How it is done:
as §1, §2

The test system of experiment [1] is S. aureus 133. Description: Spontaneous resistance rate on ADEP-containing agar. It counts as cell-based, Staphylococcus aureus. The following applies: ADEP exposure 4× MIC in Mueller-Hinton agar; 5×10^6 cells plated, colonies counted after 24 h at 37 °C. The procedure:
as §2

In experiment [2] the test system is S. aureus ATCC 29213. Described as above. It counts as cell-based, Staphylococcus aureus. The following applies: 5×10^6 cells plated, colonies counted after 24 h at 37 °C. How it is done:
as §2

Experiment [3] deals with S. aureus 133. Description: microbe, parasite or virus in culture. It counts as cell-based, Staphylococcus aureus. The conditions noted are these: broth microdilution, Mueller-Hinton broth (without cation adjustment), CLSI, inoculum 5×10^4 CFU mL^−1; wild type. The procedure: as §1
For orientation: Dilution methods test growth across graded concentrations, often in twofold steps.

The test system of experiment [4] is S. aureus ATCC 29213. Description: microbe, parasite or virus in culture. Type of experiment: cell-based, Staphylococcus aureus. The following applies: broth microdilution, Mueller-Hinton broth (without cation adjustment), CLSI, inoculum 5×10^4 CFU mL^−1; wild type. How it is done: as §1
Another experiment concerns E. faecalis ATCC 29212. Kind of experiment: microbe, parasite or virus in culture. The following applies: broth microdilution, Mueller-Hinton broth (without cation adjustment), CLSI, inoculum 5×10^4 CFU mL^−1; wild type. It counts as cell-based, Enterococcus faecalis. The procedure: as §1
The subject of experiment [5] is wild-type SaClpP. Description: Suc-LY-AMC peptide degradation by ADEP-activated ClpP. It counts as biochemical, Staphylococcus aureus. The following applies: 1 μM SaClpP, 100 μM Suc-LY-AMC, 32 °C, 15 min pre-incubation; Figure 6B. How it is done:
(§3) Peptide and protein degradation assays: Degradation assays with the fluorogenic peptide substrate Suc‐Leu‐Tyr‐7‐amino‐4‐methylcoumarin (Suc‐LY‐AMC) were performed in either BsClpP (50 mM Tris‐HCl, 25 mM MgCl2, 200 mM KCl, 2 mM DTT, pH 8) or SaClpP activity buffer (100 mM HEPES pH 7, 100 mM NaCl) in black, flat‐bottom‐96‐well plates (Sarstedt) with a total reaction volume of 100 μl and reaction temperatures of 32 °C and 37 °C for SaClpP and BsClpP, respectively. Purified ClpP proteins (final concentrations as indicated in the respective experiments) and ADEP2 (applied in 1 μl from a DMSO stock solution) were mixed and pre‐incubated for 15 min at reaction temperatures. […] Fluorophore release upon peptide hydrolysis was read out in a Tecan Infinite M200Pro plate reader (excitation/emission: 380/460 nm) every 30–60 s for 1 h. […] SaClpP (1 μM) and ADEP2 (concentrations as indicated) were pre‐incubated at 32 °C for 15 min before initiating the reaction by addition of FITC – casein (20 μM final concentration) and fluorescence readout (excitation/emission: 485/535 nm). In both assays, enzyme velocity was determined by linear regression of the initial segment of the fluorescence‐time plot in GraphPad Prism 5. […] Decrease of fluorescence was monitored at an emission wavelength of 535 nm in white, flat‐bottom 96‐well‐plates (Greiner). […]

The next experiment has as its system E. faecium RC1. Type of experiment: cell-based, Enterococcus faecium. The conditions noted are these: resistant clone of E. faecium L4001; ClpP I29→T, ADEP binding site. How it is done:
as §1, §2

Another experiment has as its system E. faecium RC3. It counts as cell-based, Enterococcus faecium. The conditions noted are these: resistant clone of E. faecium L4001; ClpP G127→A (equatorial interface). How it is done:
as §1, §2

In another experiment the test system is E. faecium RC2. It counts as cell-based, Enterococcus faecium. The following applies: resistant clone of E. faecium L4001; insertion of IS30 family transposase between promotor and start codon, no expression. How it is done:
as §1, §2

Experiment [6] has as its system wild-type SaClpP. Description: FITC-casein degradation by ADEP-activated ClpP. It counts as biochemical, Staphylococcus aureus. The following applies: 1 μM SaClpP, 20 μM FITC-casein, 32 °C; Figure 6D. The procedure: as §3
A further experiment concerns S. pneumoniae G9A. It counts as cell-based, Streptococcus pneumoniae. The following applies: broth microdilution, Mueller-Hinton broth; wildtype. The procedure: as §1
Another experiment relates to S. pneumoniae RC4. It counts as cell-based, Streptococcus pneumoniae. The following applies: resistant clone of S. pneumoniae G9A; ClpP A94→G (ClpP core; β4). How it is done:
as §1, §2

Converted amounts (≈) assume the structure as drawn.

Take `C[C@@H]1C[C@H]2C(=O)OC[C@H](NC(=O)[C@H](Cc3cc(F)cc(F)c3)NC(=O)CCC3CCCCC3)C(=O)N3CCC[C@H]3C(=O)N3CCCC[C@H]3C(=O)N[C@@H](C)C(=O)N2C1` [ADEP2]: the MIC in the experiment on B. subtilis RC5 was over 64 µg/mL; in the experiment on B. subtilis RC2, over 64 µg/mL; with B. subtilis RC9 it was over 64 µg/mL; in the experiment on S. aureus 133 [3], 0.031 µg/mL (≈ 0.0388 µM); in the experiment on S. aureus ATCC 29213 [4] it was 0.125 µg/mL (≈ 0.156 µM); against E. faecalis ATCC 29212, at most 0.031 µg/mL. Moreover, the MIC in the experiment on E. faecium RC1 is 0.125 µg/mL (≈ 0.156 µM); in the experiment with E. faecium RC3 it was 4 µg/mL (≈ 5.01 µM); with E. faecium RC2, over 16 µg/mL; in the experiment on S. pneumoniae G9A it was at most 0.063 µg/mL; in the experiment on S. pneumoniae RC4, 16 µg/mL (≈ 20 µM). In addition, the results for the Resistance rate in the experiment with S. aureus 133 [1], in the experiment with S. aureus ATCC 29213 [2] (ADEP exposure 4× MIC in Mueller-Hinton agar) and with S. aureus ATCC 29213 [2] (ADEP exposure 10× MIC in Mueller-Hinton agar) were 3×10^−6, 7×10^−7 and 7×10^−7, respectively. The “concentration sufficient for full catalytic stimulation (Suc-LY-AMC degradation)” value in the experiment with wild-type SaClpP [5] was determined as 3 µM. The “concentration sufficient for an almost maximal casein degradation rate” value in the experiment on wild-type SaClpP [6] was determined as 3 µM.
